Data as given in patent US12023308B2, “Agents for reversing toxic proteinopathies” (THE BROAD INSTITUTE, INC., priority 2019, dated 2024).
Entries after “also recorded” stand apart in the source; their conditions may differ.

Assays:
[1] = test system: huntingtin (97 polyQ); test: Huntingtin-GFP (97 polyQ) accumulation in HEK cells; assay type: cell-based, human; conditions: 10 μM, 72 hours
Method: HEK293T cells were transfected with Huntingtin 97Q repeats fused to GFP and selected in 0.8 mg/mL G418 (Thermo Fisher Scientific®).
For GFP-Huntingtin experiments (FIGS. 15G and 15H), GFP signal in each cell was calculated using the “spot” identification feature, and total spot intensity for single cells was calculated and averaged for each well.
HEK293T stably expressing huntingtin 97Q-GFP were treated with 10 μM of BRD-4780 or vehicle DMSO, then monitored for GFP intensity by live cell imaging.

[2] = test system: MUC1-wt; test: BRD-4780 treatment in fs/+ knock-in mice, kidney MUC1-wt by IF; assay type: in vivo, mouse; conditions: daily oral gavage, 7 days
Method: Mice were anesthetized with 3 L/min 02 mixed with 3% isoflurane using the Combi-Vet® system (Rothacher Medical, Bern, Switzerland) for 5 min. Mouse kidneys were removed, sagittally cut to half and rapidly frozen in Tissue-Tek® O.C.T. Compound, Sakura® Finetek (OCT) (25608-930, VWR) using dry ice and 100% ethanol. Five […] sagittal cryosections (CM1950, Leica) were thaw mounted on microscope slides (Fisherbrand™ Superfrost™ Plus, Fisher Scientific) and kept in the cryostat (at −26° C.) for the duration of the sectioning process. Sections were immersion-fixed for 10 min in 4% PFA (15710, Electron Microscopy Sciences), then washed in PBS. The slides were then subjected to antigen retrieval by immersion in 10 mM citric acid buffer (pH=6), for 10 minutes at 95° C. […]
MUC1-fs and MUC1-wt mean intensities were calculated in kidney sections of mice treated with either vehicle or BRD-4780 (FIGS. 4A, 4B and 12A). As MUC1-fs and MUC1-wt levels varied in different kidney regions, and as sections might contain different portions of the different kidney regions, the levels of these proteins were analyzed only in NCC-positive distal convoluted tubules. […] Each fluorescent channel intensity was measured and a threshold was set for the identification of NCC positive cells. MUC1-fs and MUC1-wt levels were then calculated only in the NCC positive cells. […]

[3] = Dose response exposure PK study in male 129-ELITE mice; assay type: in vivo, mouse; conditions: single p.o. doses
Method: 4) A pharmacokinetic study was performed by Charles River Labs (CRL) (Worcester, Mass., USA) in fed male 129-ELITE mice (study EF-0024-DA-MI) to determine the dose response exposure of BRD-4780, BRD-1365 and BRD-7709 in plasma, kidney, liver and eye. Brain exposure to BRD-4780 at 30 mg/kg was also evaluated A single dose of BRD-4780 was administered at 30.0 mg/kg or 100 mg/kg orally (p.o) in a clear solution of 5% dextrose in water (D5W). For BRD-1365 and BRD-7709, a single dose of either compound was administered at 10.0 mg/kg, 30.0 mg/kg, 50.0 mg/kg or 100 mg/kg orally (p.o) in a clear solution of 5% dextrose in water (D5W). Blood, kidney, liver and eye tissue were collected from n=3 mice per dose group at six time points post p.o. dose administration (1, 2, 6, 10, 16 and 24 hours) with all three compounds. Brain tissue was collected from n=3 mice per dose group at six time points post p.o. dose administration (1, 2, 6, 10, 16 and 24 hours) with BRD-4780 at 30 mg/kg. Plasma obtained by centrifugation and tissue fragments were homogenized. Plasma and tissue drug concentration was determined by LC-MS/MS and reported as drug concentration in ng/mL for plasma and ng/mg for kidney, liver and eye tissue, plotted as the mean±standard deviation concentration for males for BRD-4780 ([…]), BRD-1365 (FIG. 11K) and BRD-7709 (FIG. 11M). Standard pharmacokinetic parameters were calculated for males for BRD-4780 ([…]), BRD-1365 (FIG. 11O) and BRD-7709 (FIG. 11P).

CC(C)[C@@H]1[C@H]2CC[C@H](C2)[C@H]1N (racemic) [BRD-4780, 2-endo-amino-3-exo-isopropylbicyclo[2.2.1]heptane]
intracellular accumulation of GFP-tagged mutant huntingtin (97 polyQ) [1]: did not reverse or diminish the intracellular accumulation; also recorded: no effect on mutant huntingtin | MUC1-wt in mouse kidneys [2]: no effect on MUC1-wt | dose proportionality of AUC exposures [3]: not dose proportional
